Data reported in PubChem BioAssay AID512.

Molecular target: Carbonyl reductase [NADPH] 3 (Homo sapiens) (UniProt O75828)
Test: CBR3 binders by thermal stabilization, biophysical, DSF, SYPRO orange, recombinant protein (AID 512)
Conditions: at 10 µM, pH 7.5, NaCl 150 mM, protein 2 µM, stronger effect = higher value
[1] = buffer 10 mM HEPES, NADP 100 µM

Sequence of Carbonyl reductase [NADPH] 3 (Homo sapiens) (O75828 whole entry, looked up): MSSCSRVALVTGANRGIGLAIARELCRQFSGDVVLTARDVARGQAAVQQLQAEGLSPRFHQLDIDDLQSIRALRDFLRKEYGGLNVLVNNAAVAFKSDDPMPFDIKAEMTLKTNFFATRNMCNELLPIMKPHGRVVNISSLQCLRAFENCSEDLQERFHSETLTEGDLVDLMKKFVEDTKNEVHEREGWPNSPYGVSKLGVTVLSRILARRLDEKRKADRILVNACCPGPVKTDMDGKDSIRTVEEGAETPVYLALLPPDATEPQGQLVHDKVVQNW

A Tm shift (buffer 10 mM HEPES) of 4.4 Celsius was found for `NC(=O)c1ccc[n+](C2OC(COP(=O)(O)OP(=O)(O)OCC3OC(n4cnc5c(N)ncnc54)C(OP(=O)(O)O)C3O)C(O)C2O)c1` (centres undefined) in this work.
A Tm shift (buffer 10 mM HEPES) of 2.2 Celsius was found for `O=C1C(=O)C(c2ccc(O)cc2O)Oc2cc(O)cc(O)c21` (centres undefined) in this work.
A Tm shift (buffer 10 mM HEPES) of 2.1 Celsius was found for `O=C1C(=O)C(c2ccc(O)cc2)Oc2cc(O)cc(O)c21` (centres undefined) in this work.
A Tm shift [1] of 2.1 Celsius was found for `Brc1ccc(-c2[nH]c(-c3c[nH]c4ccccc34)nc2-c2ccccc2)cc1` in this work.
A Tm shift (buffer 10 mM HEPES) of 2.5 Celsius was found for `CCN(CC)C(=S)SSC(=S)N(CC)CC` in this work.
A Tm shift [1] of 2.4 Celsius was found for `Cc1ccc2c(c1)=C(c1[nH]c(=S)[nH]c1O)C(=O)N=2` in this work.
A Tm shift (buffer 10 mM HEPES) of 3.1 Celsius was found for `O=c1oc2cc(O)ccc2c2oc3cc(O)ccc3c12` in this work.
A Tm shift [1] of 3.1 Celsius and a Tm shift (measured here: second experiment Tm shift, run 2, buffer 10 mM HEPES, NADP 100 µM) of 2.4 Celsius were found for `COc1cc(/C=C/C(=O)CC(=O)/C=C/c2ccc(O)c(OC)c2)ccc1O` in this work.
